Measurements published in PubChem BioAssay (NCI).
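Five compound concentrations were applied to cells in 96-well plates for 48 hours; endpoints were derived by simple linear interpolation of the resulting dose-response curve. Here, GI50 denotes the concentration required for 50% inhibition of growth. Definition used: TGI = concentration required for complete inhibition of growth.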

Experiments:
Assay in all cases: NCI anticancer screen, dose series, 48 h
A498 renal = test system: A498 renal
UO-31 renal = test system: UO-31 renal
NCI-H226 lung = test system: NCI-H226 lung
OVCAR-5 ovarian = test system: OVCAR-5 ovarian
HL-60(TB) leukemia = test system: HL-60(TB) leukemia
RXF 393 renal = test system: RXF 393 renal
CAKI-1 renal = test system: CAKI-1 renal
ACHN renal = test system: ACHN renal
MDA-MB-231 breast = test system: MDA-MB-231 breast
SF-295 CNS = test system: SF-295 CNS
NCI/ADR-RES ovarian = test system: NCI/ADR-RES ovarian
EKVX NSCLC = test system: EKVX NSCLC
CCRF-CEM leukemia = test system: CCRF-CEM leukemia
SNB-19 CNS = test system: SNB-19 CNS
LOX IMVI melanoma = test system: LOX IMVI melanoma
HOP-62 NSCLC = test system: HOP-62 NSCLC
KM12 colon = test system: KM12 colon
SK-MEL-5 melanoma = test system: SK-MEL-5 melanoma
COLO 205 colon = test system: COLO 205 colon
OVCAR-3 ovarian = test system: OVCAR-3 ovarian
HT29 colon = test system: HT29 colon
SR leukemia = test system: SR leukemia
UACC-257 melanoma = test system: UACC-257 melanoma
SF-539 CNS = test system: SF-539 CNS
SF-268 CNS = test system: SF-268 CNS
SNB-75 CNS = test system: SNB-75 CNS
HOP-92 NSCLC = test system: HOP-92 NSCLC
HCT-15 colon = test system: HCT-15 colon
DU-145 prostate = test system: DU-145 prostate
PC-3 prostate = test system: PC-3 prostate
RPMI-8226 leukemia = test system: RPMI-8226 leukemia
MDA-MB-435 = test system: MDA-MB-435
MCF7 breast = test system: MCF7 breast
M14 melanoma = test system: M14 melanoma
NCI-H23 lung = test system: NCI-H23 lung
A549 NSCLC = test system: A549 NSCLC
HS 578T breast = test system: HS 578T breast
SN12C renal = test system: SN12C renal
786-0 renal = test system: 786-0 renal
NCI-H460 lung = test system: NCI-H460 lung
T-47D breast = test system: T-47D breast
SK-OV-3 ovarian = test system: SK-OV-3 ovarian
SK-MEL-2 melanoma = test system: SK-MEL-2 melanoma
U251 CNS = test system: U251 CNS
IGROV1 ovarian = test system: IGROV1 ovarian
BT-549 breast = test system: BT-549 breast
NCI-H522 lung = test system: NCI-H522 lung
OVCAR-4 ovarian = test system: OVCAR-4 ovarian
TK-10 renal = test system: TK-10 renal
K-562 leukemia = test system: K-562 leukemia
HCC-2998 colon = test system: HCC-2998 colon
HCT-116 colon = test system: HCT-116 colon
MALME-3M melanoma = test system: MALME-3M melanoma
UACC-62 melanoma = test system: UACC-62 melanoma
SW-620 colon = test system: SW-620 colon
MOLT-4 leukemia = test system: MOLT-4 leukemia
OVCAR-8 ovarian = test system: OVCAR-8 ovarian
SK-MEL-28 melanoma = test system: SK-MEL-28 melanoma

CN(C)c1ccc2c(c1)OC(N)=C(C#N)C2c1ccc2c(c1)CCO2 (stereo unspecified)
GI50 (A498 renal): < 27.2 nM
TGI (A498 renal): 5590 nM
GI50 (UO-31 renal): 362 nM
TGI (UO-31 renal): 35400 nM
GI50 (NCI-H226 lung): 2380 nM
TGI (NCI-H226 lung): > 62400 nM
GI50 (OVCAR-5 ovarian): 1130 nM
TGI (OVCAR-5 ovarian): > 100000 nM
GI50 (HL-60(TB) leukemia): 93.9 nM
TGI (HL-60(TB) leukemia): 491 nM
GI50 (RXF 393 renal): 255 nM
GI50 (CAKI-1 renal): 147 nM
TGI (CAKI-1 renal): > 100000 nM
GI50 (ACHN renal): 68.3 nM
TGI (ACHN renal): > 67100 nM
GI50 (MDA-MB-231 breast): 419 nM
TGI (MDA-MB-231 breast): 28600 nM
GI50 (SF-295 CNS): < 20.8 nM
TGI (SF-295 CNS): 1950 nM
GI50 (NCI/ADR-RES ovarian): < 27.9 nM
TGI (NCI/ADR-RES ovarian): > 22100 nM
GI50 (EKVX NSCLC): 470 nM
TGI (EKVX NSCLC): > 100000 nM
GI50 (CCRF-CEM leukemia): 216 nM
TGI (CCRF-CEM leukemia): > 52600 nM
GI50 (SNB-19 CNS): 1170 nM
TGI (SNB-19 CNS): > 100000 nM
GI50 (LOX IMVI melanoma): 53 nM
TGI (LOX IMVI melanoma): 17900 nM
TGI (HOP-62 NSCLC): > 76700 nM
GI50 (KM12 colon): < 30.9 nM
TGI (KM12 colon): > 42000 nM
GI50 (SK-MEL-5 melanoma): < 42.7 nM
TGI (SK-MEL-5 melanoma): 15100 nM
GI50 (COLO 205 colon): 280 nM
TGI (COLO 205 colon): 3390 nM
GI50 (OVCAR-3 ovarian): < 21.3 nM
TGI (OVCAR-3 ovarian): 1880 nM
GI50 (HT29 colon): 321 nM
GI50 (SR leukemia): < 19.8 nM
TGI (SR leukemia): > 48200 nM
GI50 (UACC-257 melanoma): 27000 nM
TGI (UACC-257 melanoma): > 100000 nM
GI50 (SF-539 CNS): 118 nM
TGI (SF-539 CNS): 519 nM
GI50 (SF-268 CNS): 524 nM
TGI (SF-268 CNS): 97400 nM
GI50 (SNB-75 CNS): 81.2 nM
TGI (SNB-75 CNS): > 49400 nM
GI50 (HOP-92 NSCLC): 5690 nM
TGI (HOP-92 NSCLC): 74300 nM
GI50 (HCT-15 colon): < 26.2 nM
TGI (HCT-15 colon): > 100000 nM
GI50 (DU-145 prostate): 229 nM
TGI (DU-145 prostate): > 100000 nM
GI50 (PC-3 prostate): 66.4 nM
TGI (PC-3 prostate): > 100000 nM
GI50 (RPMI-8226 leukemia): 480 nM
TGI (RPMI-8226 leukemia): 28300 nM
GI50 (MDA-MB-435): < 15.6 nM
TGI (MDA-MB-435): 95 nM
GI50 (MCF7 breast): < 21.1 nM
TGI (MCF7 breast): 32300 nM
GI50 (M14 melanoma): 41.7 nM
TGI (M14 melanoma): 11400 nM
GI50 (NCI-H23 lung): 362 nM
TGI (NCI-H23 lung): > 100000 nM
GI50 (A549 NSCLC): 198 nM
TGI (A549 NSCLC): > 100000 nM
GI50 (HS 578T breast): 235 nM
TGI (HS 578T breast): > 100000 nM
GI50 (SN12C renal): 644 nM
TGI (SN12C renal): 42500 nM
GI50 (786-0 renal): 50.2 nM
TGI (786-0 renal): 25100 nM
GI50 (NCI-H460 lung): < 23.1 nM
TGI (NCI-H460 lung): 18300 nM
TGI (T-47D breast): 56400 nM
GI50 (SK-OV-3 ovarian): 224 nM
TGI (SK-OV-3 ovarian): > 73900 nM
GI50 (SK-MEL-2 melanoma): 96.2 nM
TGI (SK-MEL-2 melanoma): 24700 nM
GI50 (U251 CNS): 198 nM
TGI (U251 CNS): 29800 nM
GI50 (IGROV1 ovarian): 326 nM
TGI (IGROV1 ovarian): > 100000 nM
GI50 (BT-549 breast): 38.5 nM
TGI (BT-549 breast): 12400 nM
GI50 (NCI-H522 lung): < 23.9 nM
GI50 (OVCAR-4 ovarian): 704 nM
TGI (OVCAR-4 ovarian): > 100000 nM
GI50 (TK-10 renal): 15900 nM
TGI (TK-10 renal): > 100000 nM
GI50 (K-562 leukemia): < 23 nM
TGI (K-562 leukemia): > 100000 nM
GI50 (HCC-2998 colon): 469 nM
TGI (HCC-2998 colon): > 100000 nM
GI50 (HCT-116 colon): < 20.1 nM
TGI (HCT-116 colon): 8520 nM
GI50 (MALME-3M melanoma): 14900 nM
TGI (MALME-3M melanoma): 59700 nM
GI50 (UACC-62 melanoma): < 20.5 nM
TGI (UACC-62 melanoma): 21900 nM
GI50 (SW-620 colon): < 29.4 nM
TGI (SW-620 colon): > 100000 nM
GI50 (MOLT-4 leukemia): 300 nM
TGI (MOLT-4 leukemia): 32400 nM
GI50 (OVCAR-8 ovarian): 390 nM
TGI (OVCAR-8 ovarian): 39900 nM
GI50 (SK-MEL-28 melanoma): 1920 nM
TGI (SK-MEL-28 melanoma): 29500 nM
